In paper PMC11173529, “Structure–Activity Relationship Studies in a Series of Xanthine Inhibitors of SLACK Potassium Channels” (Molecules, 2024) one finds IC50 and Imax data, which are given here for six compounds.

The test concerns the target T1, human A934T SLACK (Homo sapiens, UniProt Q5JUK3, A915T).
T1 construct: host or cells: CHO-K1
T1 sequence (Q5JUK3 1-1235 isoform Q5JUK3-3 A934T): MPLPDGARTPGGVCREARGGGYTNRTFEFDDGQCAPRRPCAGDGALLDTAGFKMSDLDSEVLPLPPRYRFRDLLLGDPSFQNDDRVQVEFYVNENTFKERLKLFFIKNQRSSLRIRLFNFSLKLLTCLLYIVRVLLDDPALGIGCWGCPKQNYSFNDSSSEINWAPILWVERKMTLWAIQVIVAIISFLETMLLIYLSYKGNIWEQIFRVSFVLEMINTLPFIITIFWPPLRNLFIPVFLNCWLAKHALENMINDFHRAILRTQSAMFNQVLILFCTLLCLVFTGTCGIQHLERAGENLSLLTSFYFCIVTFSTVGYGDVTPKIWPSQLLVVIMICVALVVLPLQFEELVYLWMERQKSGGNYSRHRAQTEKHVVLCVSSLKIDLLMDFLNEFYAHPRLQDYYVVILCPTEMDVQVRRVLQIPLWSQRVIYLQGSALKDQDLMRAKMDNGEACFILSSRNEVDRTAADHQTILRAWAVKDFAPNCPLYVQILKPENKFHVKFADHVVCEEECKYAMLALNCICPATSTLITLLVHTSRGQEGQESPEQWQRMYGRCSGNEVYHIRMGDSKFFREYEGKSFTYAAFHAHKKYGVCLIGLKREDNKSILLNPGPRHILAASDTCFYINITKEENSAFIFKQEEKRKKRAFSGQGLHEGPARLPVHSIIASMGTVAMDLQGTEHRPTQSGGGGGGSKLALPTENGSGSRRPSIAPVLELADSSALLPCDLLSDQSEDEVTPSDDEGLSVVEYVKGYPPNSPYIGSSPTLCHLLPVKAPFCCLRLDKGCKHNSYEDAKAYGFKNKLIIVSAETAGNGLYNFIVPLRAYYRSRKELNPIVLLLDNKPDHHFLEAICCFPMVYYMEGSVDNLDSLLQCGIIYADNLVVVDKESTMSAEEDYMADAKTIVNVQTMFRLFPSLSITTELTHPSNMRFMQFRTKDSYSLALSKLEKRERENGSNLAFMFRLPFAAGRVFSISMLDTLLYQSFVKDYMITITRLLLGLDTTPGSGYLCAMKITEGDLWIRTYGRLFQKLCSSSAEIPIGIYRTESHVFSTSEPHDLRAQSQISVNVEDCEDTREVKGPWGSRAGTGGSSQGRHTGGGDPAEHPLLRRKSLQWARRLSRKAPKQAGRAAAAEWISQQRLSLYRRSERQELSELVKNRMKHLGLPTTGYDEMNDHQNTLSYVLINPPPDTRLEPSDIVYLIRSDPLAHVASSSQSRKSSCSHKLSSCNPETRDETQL
The test can be described thus: Whole-cell APC in CHO cells stably expressing human A934T SLACK. It is filed as cell-based. Conditions: for IC50: APC, CHO cells; for Imax: maximum inhibition at 30 µM standardized to VU0606170 (100%). The source says: Development of a useful SLACK inhibitor in vivo tool will require potent activity at the corresponding mouse ortholog as studies in appropriate mouse models will be critical. Thus, we evaluated analogs 32 and 48 in our APC assay using CHO cells stably expressing mouse WT SLACK (Table 6). […] We were also eager to evaluate the same compounds with regard to their ability to inhibit clinically relevant GOF SLACK mutants. Both the C-terminus A934T mutant and transmembrane G288S mutant have been associated with clinical cases of EIMFS [3, 7].
Stably transfected monoclonal HEK293 cell lines expressing Slick, Maxi-K α1/β3, Maxi-K α1/β4, CaV3.2, GIRK 1/2, KV2.1, KV7.2, NaV1.7, and TASK-1 were generated as previously described. Stably transfected monoclonal HEK293 cell lines expressing hERG were generated as previously described. CHO-K1 cells expressing human Slack and disease-associated human Slack mutations, G288S and A934T, were generated by transfecting a PiggyBac TRE mammalian expression vector (VectorBuilder, Chicago, IL, USA) containing KCNT1. FuGENE 6 (Promega, Madison, WI, USA) transfection reagent and protocol, together with Opti-MEM (Thermo Fisher Scientific, Walkham, MA, USA), were utilized.
Automated patch-clamp recording was performed with a SyncroPatch 768 PE system (Nanion, Munich, Germany) as previously described. Whole-cell recordings were performed at room temperature. Cells were harvested by first washing with PBS without Mg^2+ or Ca^2+ (Gibco, Billings, MT, USA) to remove cell culture media, followed by dissociation with TryPLE (Gibco, Billings, MT, USA). Cells were then resuspended and diluted to 100,000 cells/mL in external solution. External solution contained 105 mM NaCl, 4 mM KCl, 1 mM MgCl2, 5 mM CaCl2, 10 mM HEPES, and 40 mM N-Methyl-D-glucamine chloride, titrated to pH of 7.4 and osmolarity of 300 mOsm/kg; internal solution contained 70 mM NaCl, 70 mM KF, 10 mM KCl, 5 mM EGTA, and 5 mM HEPES, titrated to a pH of 7.2 and osmolarity of 295 mOsm/kg.
The APC protocol was set as follows: Cells were held at a […] of −80 mV for 100 ms, then a ramp protocol was performed from −100 mV to 80 mV at 0.4 mV/ms, followed by holding the cell at −80 mV for another 100 ms, then steps were performed at −20 mV, 0 mV, +20 mV, +40 mV, and +60 mV for 100 ms of each step. Whole-cell currents were measured at 0 mV and normalized to current after external buffer addition. […] To obtain the concentration-response relationship graphs and IC50 values, we take the median value of the last 7 current amplitude values obtained for each set of data points collected for a given concentration at a particular step.

Structures are written as SMILES.

A word on the IC50: it is the point on the concentration scale where inhibition reaches its midpoint. As to `CCCCN(Cc1cccc(F)c1)c1nc2c(c(=O)n(Cc3cccc(OC)c3)c(=O)n2C)n1C` [Analog 78], inhibition was half-maximal at 350 nM (IC50).

The compound `COc1cccc(Cn2c(=O)c3c(nc(N(C)Cc4ccccc4)n3C)n(C)c2=O)c1` [Analog 32] showed an IC50 of 780 nM and an Imax of 99%.

As for `COc1cccc(Cn2c(=O)c3c(nc(N(Cc4ccc(F)cc4)CC4CC4)n3C)n(C)c2=O)c1` [Analog 81], the IC50 is 1200 nM.

On to `COc1cccc(Cn2c(=O)c3c(nc(N(Cc4cccc(F)c4)CC4CC4)n3C)n(C)c2=O)c1` [Analog 79], for which the IC50 was determined as 1000 nM.

For `CCCCN(Cc1ccc(F)cc1)c1nc2c(c(=O)n(Cc3cccc(OC)c3)c(=O)n2C)n1C` [Analog 80], the IC50 was 590 nM.

`CN(Cc1cccc(F)c1)c1nc2c(c(=O)n(Cc3ccccc3)c(=O)n2C)n1C` [Analog 48] displayed an IC50 of 820 nM and an Imax of 100%.
